Laboratory results: ChEMBL document CHEMBL1201862, “PubChem BioAssay data set” (2004)
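Five compound concentrations were applied to cells in 96-well plates for 48 hours; endpoints were derived by simple linear interpolation of the resulting dose-response curve. GI50 marks 50% less growth.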 Active and inactive are the calls of the source. Rule as the data show it: active = GI50 up to about 1.1 µM and inactive = higher.

Columns and labels:
Experiment in all cases: DTP human tumour cell line panel, 48 h
[1] = tested on: SNB-78
[2] = tested on: DLD-1
[3] = tested on: DMS-114
[4] = tested on: RXF 631
[5] = tested on: XF498
[6] = tested on: LXFL 529
[7] = tested on: KM-20L2
[8] = tested on: DMS-273
[9] = tested on: HOP-18

Measured: GI50

Cc1[nH]c2ccccc2c1C1=NO/C(=N\O)C(c2c(C)[nH]c3ccccc23)C1 (stereo unspecified)
inactive: [1] 35.4 µM | [2] 42.3 µM | [3] 36.8 µM | [4] 31 µM | [5] 53 µM | [6] 35.6 µM | [7] 23.8 µM | [8] 35.9 µM | [9] 32.4 µM

CC(C)(C)C(=O)OC12/C(=N/O)CCCCCC1c1ccccc12 (stereo unspecified)
inactive: [1] 25.1 µM | [2] 19.5 µM | [3] 19.4 µM | [6] 16.3 µM | [7] 20.2 µM | [8] 17.9 µM | [9] 18.8 µM

COc1cccc(/C=C(/C(=O)O)c2cc(OC)c(OC)c(OC)c2)c1
inactive: [1] > 100 µM | [2] > 100 µM | [3] > 100 µM | [4] > 100 µM | [5] 37.8 µM | [6] > 100 µM | [7] > 100 µM | [8] > 100 µM | [9] > 100 µM

COc1ccc(N2C(=O)/C(=C/c3ccc(N(CCC#N)CCC#N)cc3C)N=C2/C=C\c2ccccc2)cc1
inactive: [1] > 100 µM | [2] > 100 µM | [3] 23.9 µM | [4] > 100 µM | [6] 8.43 µM | [7] 4.73 µM | [9] > 100 µM

C=C[C@@]12CCCCC1C/C(=C(/O)OC)C(=O)C2 (stereo partly specified)
inactive: [1] > 100 µM | [2] > 100 µM | [3] > 100 µM | [4] > 100 µM | [5] > 100 µM | [6] > 100 µM | [7] > 100 µM | [8] > 100 µM | [9] > 100 µM

Cc1ccc(C2=Nc3ccccc3SC(c3cccc4c3OCO4)C2)cc1 (stereo unspecified)
inactive: [2] 27.9 µM | [5] 15.5 µM | [6] 15 µM | [7] 21.3 µM | [8] 19.7 µM | [9] 13.5 µM

COC(=O)C1=C(C(=O)OC)C2(C)OC1C(=O)C21CC1 (stereo unspecified)
inactive: [2] 19.1 µM | [3] 20.4 µM | [4] 17.1 µM | [5] 13.6 µM | [6] 19.5 µM | [7] 23.7 µM | [8] 17.7 µM

CCOc1cc2cnc3c4cc(OC)c(OC)cc4ccc3c2cc1OC
inactive: [1] > 100 µM | [2] > 100 µM | [3] 7.1 µM | [6] 9.02 µM | [7] > 100 µM | [9] 16.9 µM

OCn1nc2c(C3OCCO3)cc3ccccc3n2c1=S
inactive: [1] > 100 µM | [2] > 100 µM | [3] > 100 µM | [4] > 100 µM | [5] > 100 µM | [6] > 100 µM | [7] > 100 µM | [8] > 100 µM | [9] > 100 µM

Cc1cccc(C)c1NC(=O)CCc1n[nH]c(=S)o1
inactive: [1] > 100 µM | [2] 67.9 µM | [3] 39.1 µM | [6] > 100 µM | [7] > 100 µM | [8] 44.7 µM | [9] > 100 µM

CC(C)=CCC/C(C)=C/CC/C(C)=C/Cc1c(O)c2ccccc2oc1=O
inactive: [1] > 100 µM | [2] > 100 µM | [3] 83.6 µM | [6] > 100 µM | [7] > 100 µM | [8] > 100 µM | [9] > 100 µM

CCOC(=O)C1=C(O)C(=O)c2ccsc2C1=O
inactive: [1] > 100 µM | [2] > 100 µM | [3] > 100 µM | [7] > 100 µM | [8] > 100 µM | [9] > 100 µM

Cc1cc(NS(=O)(=O)c2ccc(NC(=O)c3ccc(Cl)c4c(Nc5ccc(S(=O)(=O)N=C(N)N)cc5)c5ccccc5nc34)cc2)no1
inactive: [1] 41.9 µM | [2] > 100 µM | [3] 62.4 µM | [5] 17.6 µM | [6] 31.8 µM | [7] > 100 µM

COC(=O)/C(=N\NC(=S)NN)C(C(=O)C(=O)Nc1ccccc1C(N)=O)c1nc2ccccc2nc1O (stereo unspecified)
inactive: [1] > 100 µM | [3] > 100 µM | [4] > 100 µM | [5] > 100 µM | [6] > 100 µM | [7] > 100 µM | [8] > 100 µM | [9] > 100 µM

COc1ccc2[nH]cc(CCNC(C)=O)c2c1 [MELATONIN]
inactive: [1] > 100 µM | [2] > 100 µM | [3] > 100 µM | [5] > 100 µM | [6] > 100 µM | [7] > 100 µM | [8] > 100 µM | [9] > 100 µM

CC(=O)OC1CC2C(C)(C)C(=O)C=C[C@]2(C)C2CCC3(C)C(c4ccoc4)C(=O)C4OC43[C@]12C (stereo partly specified)
inactive: [1] 51.1 µM | [2] 16.5 µM | [3] 16.1 µM | [6] 22.6 µM | [7] 17.2 µM | [8] 31.6 µM | [9] 99.3 µM

CP(C)C.[Ag][I]
inactive: [1] 28.4 µM | [2] > 100 µM | [3] 73.8 µM | [4] 24.3 µM | [5] 15 µM | [6] 16 µM | [7] > 100 µM | [8] > 100 µM | [9] 62.8 µM

O=C1CCN2C(=Nc3cccc4cccc2c34)N1
inactive: [1] > 100 µM | [3] > 100 µM | [5] > 100 µM | [6] > 100 µM | [7] > 100 µM | [8] > 100 µM

Cc1nc(N)sc1C(=O)/C=C/c1ccc(/C=C/C(=O)c2sc(NC(=O)CCCCCCCCC(=O)Nc3nc(C)c(C(=O)/C=C/c4ccc(/C=C/C(=O)c5sc(N)nc5C)cc4)s3)nc2C)cc1
inactive: [1] 58.5 µM | [2] > 100 µM | [3] > 100 µM | [4] > 100 µM | [5] > 100 µM | [6] > 100 µM | [7] > 100 µM | [8] > 100 µM | [9] > 100 µM

COc1cccc(-c2cc(O)c3ccccc3n2)c1
inactive: [2] 3.63 µM | [3] 4.69 µM | [5] 4.07 µM | [6] 4.86 µM | [7] 9.77 µM | [8] 4.53 µM | [9] 15.2 µM

CCOC(=O)C(NO)C(Sc1ccccc1)c1ccc(OC)cc1 (stereo unspecified)
inactive: [1] > 100 µM | [2] 72.9 µM | [3] 64.7 µM | [5] 31 µM | [6] > 100 µM | [7] > 100 µM | [8] > 100 µM | [9] > 100 µM

CC(=O)OC1C(CCl)OC(N=[N+]=[N-])C(OC(C)=O)C1OC(C)=O (stereo unspecified)
inactive: [2] > 100 µM | [3] > 100 µM | [4] > 100 µM | [5] > 100 µM | [6] > 10 µM | [7] > 100 µM | [8] > 100 µM

O=C(Cc1nc2ccccc2s1)C(=O)Nc1ccc(Cl)cc1Cl
inactive: [1] > 100 µM | [2] > 100 µM | [4] > 100 µM | [5] > 100 µM | [6] > 100 µM | [7] > 100 µM | [8] > 100 µM

COc1cc(N)c2[nH]c3c(C)ccc(C)c3c2c1
inactive: [1] > 100 µM | [2] > 100 µM | [3] > 100 µM | [5] > 100 µM | [8] > 100 µM
